Experimental findings from publication PMC12559995 (RSC Advances, 2025) are described below.

Assay [1] can be described thus: DPPH free radical scavenging assay. To be noted: read-out: DPPH IC50; 0.1 mM DPPH, 30 min, 517 nm; mean ± SD.
Assay [2] relates to HEK-293 (normal human embryonic kidney) cells. The assay can be described thus: Cytotoxicity assay. The format is cell-based. To be noted: HEK293, 48 h, read-out: IC50 (HEK-293).
Assay [3] concerns MCF-7 (human breast adenocarcinoma) cells. The assay can be described thus: Cytotoxicity assay. The note with it: MCF7, 48 h, read-out: IC50 (MCF-7). The format is cell-based.
Assay [4] deals with Plasmodium falciparum 3D7. The assay can be described thus: Antimalarial assay. The format is cell-based.

What is called IC50 is the point on the concentration scale where inhibition reaches its midpoint. Regarding `O=C1O[C@H]([C@@H](O)CO)C(O)=C1O` [Ascorbic acid, reference compound], the IC50 in assay [1] stood at 5.21 ± 0.06 µM.

Consider `CC(=NNC(=S)NN=C(C(=NO)c1ccccc1)c1ccccc1)c1ccccc1C` [HBMT-MA7, N'-[2-(Hydroxyimino)-1,2-diphenylethylidene]-2-[1-(o-tolyl)ethylidene]hydrazine-1-carbothiohydrazide], for which the IC50 in assay [2] is 68.2 ± 1.8 µM; in assay [1], 10.5 ± 0.19 µM; in assay [3], 29.7 ± 1 µM; in assay [4] (Plasmodium falciparum, 3D7, 72 h, read-out: Antimalarial IC50), 2.91 ± 0.14 µM. For the same molecule, in assay [4] (SI = IC50 (HEK-293)/IC50 (antimalarial)), the “Selectivity index (HEK/IC50)” value is listed as 23.4.
